Assay [1] relates to anaesthetized rabbits subjected to vagal stimulation. The assay is described as follows: In vivo PD model, anaesthetized rabbits with vagal stimulation: right atrial effective refractory period (RAERP), QT. Further details: species or system rabbit. How it is done:
Rabbits were anaesthetized using ketalar and domitor (2.5 and 0.07 mg/kg, respectively) as an i.v. bolus followed by a maintenance i.v. infusion (11 and 0.33 mg/kg/h, respectively) and ventilated with room air. Two percutaneous polyethylene catheter (Venflon 0.8 mm, Viggo, Helsingborg, Sweden) for administration of anaesthetics and drug infusions, respectively, were inserted into marginal veins on the right and left ear. A polyethylene catheter (Intramedic PE 160 Clay Adams, Becton Dickinson, Sparks, Md., USA) was inserted into the left carotid artery and advanced to the level of the aortic arch for blood pressure recording (by means of a pressure transducer, Peter von Berg Medizintechnik Gmbh, Kirchseeon/Englharting, Germany) and for blood sampling. For recording of right atrial electrogram and for atrial pacing, a 4F quadripolar electrophysiological recording catheters (Electrophysiology catheter-Deflectable tip, Biosense Webster Inc, Johnson & Johnson, Diamond Bar, Calif., USA) was advanced into the right jugular vein and positioned high up in the right atrium (HRA). Electrodes were advanced via introducers (4F Fast-Cath haemostasis introducer, ST. Jude Medical, DAIG Division, Inc. Minnetonka, Minn., USA) correctly positioned through fluoroscopic guidance. The effective refractory period in the right atrium (RAERP) was determined at a stimulation current strength approximately 20% above the threshold for pacing the atria. A custom-made PC-based (AstraZeneca R&D, Mölndal, Sweden) programmable stimulator and constant current pulse generator (WPI Stimulus Isolator, World Precision Instruments, Sarasota, Fla., USA) were used for stimulation at one or two predefined basic cycle lengths (S1) of for example 200 and 300 ms. A premature extra stimulus (S2) was introduced after every 10th paced basic beat with increments of 2 ms until capture. […] For vagal stimulation, both vagal nerves were ligated and cut in the cervical region and propranolol (0.5 mg/kg) was administrated as an i.v. infusion to decrease sympathetic influence. Electrodes were inserted in the middle of the right vagal nerve to stimulate the efferent vagi. The RAERP was determined without or with vagal stimulation at 50% of maximal vagal response. Subsequent infusion of compound aimed to increase the RAERP with 20 ms during the first dose of two consecutive doses. The drug infusion was followed by a washout period of approximately 30-60 min. QT prolongation was recorded from surface electrocardiography (ECG). The effect on RAERP was measured several times during infusion and washout and blood samples were taken at each measurements. Effect and plasma concentration data was analysed accounting for a concentration-effect-time delay and the unbound plasma concentration (Ceu) increasing the RAERP by 20 ms was calculated.

In assay [2] the target is T1, human ether-a-go-go-related gene (hERG)-encoded K+ channel (Homo sapiens, UniProt Q12809).
T1 construct: expressed in transfected cells; host or cells: Chinese hamster ovary K1 (CHO) cells
T1 sequence (Q12809 whole entry): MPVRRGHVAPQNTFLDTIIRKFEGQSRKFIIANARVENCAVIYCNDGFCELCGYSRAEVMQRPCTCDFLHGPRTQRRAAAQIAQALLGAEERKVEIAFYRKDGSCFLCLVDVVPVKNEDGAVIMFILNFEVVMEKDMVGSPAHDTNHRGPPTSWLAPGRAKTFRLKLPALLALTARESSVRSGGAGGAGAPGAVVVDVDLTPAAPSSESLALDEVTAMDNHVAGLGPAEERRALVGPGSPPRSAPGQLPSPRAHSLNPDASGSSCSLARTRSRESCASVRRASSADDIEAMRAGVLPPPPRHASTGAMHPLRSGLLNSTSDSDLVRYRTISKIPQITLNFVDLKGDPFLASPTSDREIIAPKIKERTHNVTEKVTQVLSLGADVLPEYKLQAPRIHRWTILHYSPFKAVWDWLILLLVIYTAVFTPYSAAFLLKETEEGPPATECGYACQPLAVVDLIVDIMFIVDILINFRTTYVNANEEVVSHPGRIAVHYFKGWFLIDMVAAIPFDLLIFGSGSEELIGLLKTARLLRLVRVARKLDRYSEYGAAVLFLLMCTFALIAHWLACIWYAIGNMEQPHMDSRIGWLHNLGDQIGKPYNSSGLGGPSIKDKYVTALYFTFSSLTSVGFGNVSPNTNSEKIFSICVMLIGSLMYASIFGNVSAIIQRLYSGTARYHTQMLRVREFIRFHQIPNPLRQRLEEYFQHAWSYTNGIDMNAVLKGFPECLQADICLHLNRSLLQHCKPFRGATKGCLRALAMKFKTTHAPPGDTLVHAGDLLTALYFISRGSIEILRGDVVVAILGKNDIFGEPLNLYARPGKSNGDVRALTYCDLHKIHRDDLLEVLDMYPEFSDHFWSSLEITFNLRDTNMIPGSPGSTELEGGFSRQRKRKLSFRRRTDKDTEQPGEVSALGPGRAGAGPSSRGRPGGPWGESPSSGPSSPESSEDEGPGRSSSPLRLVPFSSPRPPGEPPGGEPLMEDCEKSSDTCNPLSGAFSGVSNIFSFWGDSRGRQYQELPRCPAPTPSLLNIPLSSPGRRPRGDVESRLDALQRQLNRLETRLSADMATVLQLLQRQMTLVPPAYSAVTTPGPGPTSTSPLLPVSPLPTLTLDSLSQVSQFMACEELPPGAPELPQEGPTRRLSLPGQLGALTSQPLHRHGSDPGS
The experiment in a line: hERG inhibition, IonWorks HT, hERG-expressing CHO cells. In kind it is cell-based. How it is done: Inhibition of the human ether-a-go-go-related gene (hERG)-encoded K^+ channel was determined using hERG-expressing Chinese hamster ovary K1 (CHO) cells on a IonWorks™ HT assay platform as described by M. H. Bridgland-Taylor et al. J. of Pharmacological and Toxicological Methods (2006); 54:189-199.
In general terms: Block of hERG is tested as a sign of cardiac risk.

One may read the IC50 as the point on the concentration scale where inhibition reaches its midpoint. Read a high IC50 as weaker potency. Consider `CC[C@@H](CN1CC(O)C1)N(C)C(=O)c1ccc(Cl)cc1` [Example 39.12, (S)-4-Chloro-N-(1-(3-hydroxyazetidin-1-yl)butan-2-yl)-N-methylbenzamide], for which the “Ceu 20 ms” value in assay [1] worked out at 2.06 µM. In assay [2], the IC50 is > 33 µM.

With `CN(C(=O)c1ccc(Cl)cc1)[C@H](CN1CC(O)C1)C1CCC1` [Example 39.14, (S)-4-Chloro-N-(1-cyclobutyl-2-(3-hydroxyazetidin-1-yl)ethyl)-N-methylbenzamide], the “Ceu 20 ms” value in assay [1] turned out to be 0.10 µM. Moreover, in assay [2], the concentration for half-maximal inhibition (IC50) was > 33 µM.

For `Cc1cc(C(=O)N(C)[C@H](CN2CC(O)C2)C2CCC2)ccc1F` [Example 39.16, (S)—N-(1-Cyclobutyl-2-(3-hydroxyazetidin-1-yl)ethyl)-4-fluoro-N,3-dimethylbenzamide], the “Ceu 20 ms” value in assay [1] is 0.24 µM. In assay [2], the half-inhibitory concentration (IC50) is > 33 µM.

Values taken from patent US8361998B2, “Compounds and their use as IKACh blockers” (AstraZeneca AB, priority 2010, dated 2013).
